The source made the active and inactive calls. The calls are words filed in the database; no cut-off is given here.
Columns and labels:
[1] = system: Vesicular stomatitis virus; assay: Antiviral activity against VSV-G pseudotyped virus infected in African green monkey Vero E6 cells assessed as inhibition of viral infection at 10 uM preincubated with cells for 1 hr followed by viral infection and measured after 24 hrs by luciferase based luminometric analysis; type: functional, organism-based; details: time 25.0 hrs
Ebolavirus [2] = assay: Antiviral activity against replicative EBOV Mayinga infected in African green monkey Vero E6 cells assessed as reduction in virus titer in cell culture supernatant incubated for 3 days by immunofocus assay; type: functional, organism-based
[3] = Cytotoxicity against African green monkey Vero E6 cells assessed as reduction in cell viability incubated for 24 hrs by CellTiter-Glo Luminescent Cell Viability Assay; type: toxicity, cell-based, Vero C1008; details: chlorocebus sabaeus
Ebolavirus [4] = assay: Antiviral activity against VSV-G pseudotyped EBOV-GP Mayinga infected in African green monkey Vero E6 cells assessed as inhibition of viral infection preincubated with cells for 1 hr followed by viral infection and measured after 24 hrs by luciferase based luminometric analysis; type: functional, organism-based; details: Orthoebolavirus, Vero C1008
[5] = Selectivity index, ratio of CC50 for cytotoxicity against African green monkey Vero E6 cells to EC50 for antiviral activity against replicative EBOV Mayinga variant infected in African green monkey Vero E6 cells; type: toxicity, cell-based; details: read-out: Ratio CC50/EC50
Ebolavirus [6] = assay: Binding affinity to EBOV-GP assessed as appearance of STD signals of aromatic region of compound at ligand to protein concentration molar ratio of 100:1 by STD-NMR analysis
Ebolavirus [7] = assay: Inhibition of cleaved EBOV-GP assessed as disruption of interaction between EBOV-GPcl and Flag-tagged human NPC1 domain C at 50 uM by ELISA
[8] = Selectivity index, ratio of CC50 for cytotoxicity against African green monkey Vero E6 cells to EC50 for antiviral activity against VSV-G pseudotyped EBOV-GP Mayinga infected in African green monkey Vero E6 cells; type: toxicity, cell-based; details: read-out: Ratio CC50/EC50
Ebolavirus [9] = assay: Binding affinity to EBOV-GP assessed as appearance of STD signals of aromatic region of compound at ligand to protein concentration molar ratio of 100:1 in presence of imipramine by STD-NMR analysis

| Compound | Activity [1] | CC50 at 24 h [3] | other results |
| --- | --- | --- | --- |
| O=C(CCN1CCCC1)Nc1ccccc1Sc1cc(Cl)ccc1[N+](=O)[O-] | inactive |  | EC50 (Ebolavirus [2]): Not_active |
| CCN(CC)CC(=O)Nc1ccccc1Sc1cc(Cl)ccc1[N+](=O)[O-] |  | 250 µM |  |
| CCN(CC)CCC(=O)Nc1ccccc1Sc1cc(Cl)ccc1[N+](=O)[O-] | inactive |  |  |
| CCN(CC)CC(=O)NNc1ccccc1Sc1cc(Cl)ccc1[N+](=O)[O-] |  |  | EC50 (Ebolavirus [4]): 4.02 µM |
| O=C(CNCc1ccccc1)Nc1ccccc1Sc1cc(Cl)ccc1[N+](=O)[O-] |  | 250 µM |  |
| O=C(CNCCC1CCN(Cc2ccccc2)CC1)Nc1ccccc1Sc1cc(Cl)ccc1[N+](=O)[O-] | inactive |  |  |
| O=C(CN1CCCCC1)Nc1ccccc1Sc1cc(Cl)ccc1[N+](=O)[O-] |  | 250 µM |  |
| O=C(CN1CCCC1)NNc1ccccc1Sc1cc(Cl)ccc1[N+](=O)[O-] |  |  | EC50 (Ebolavirus [4]): 2.9 µM |
| NC(=O)c1nc(F)c[nH]c1=O |  | > 1000 µM | selectivity ratio [5]: 14.9 |
| O=C(CCN1CCCC1)Nc1ccccc1Nc1cc(Cl)ccc1[N+](=O)[O-] | inactive |  |  |
| CCN(CC)CCC(=O)Nc1ccccc1Nc1cc(Cl)ccc1[N+](=O)[O-] | inactive |  |  |
| O=C(CCNCCc1ccccc1)Nc1ccccc1Sc1cc(Cl)ccc1[N+](=O)[O-] |  | 250 µM |  |
| O=C(CNCCC1CCN(Cc2ccccc2)CC1)Nc1ccccc1Nc1cc(Cl)ccc1[N+](=O)[O-] | inactive |  | Activity (Ebolavirus [6]): Active; inhibition (Ebolavirus [7]): Active; selectivity ratio [5]: 2.3; selectivity ratio [8]: 4.1; Activity (Ebolavirus [9]): inactive |
| O=C(CN1CCCC1)Nc1ccccc1Sc1cc(Cl)ccc1[N+](=O)[O-] |  | 250 µM | EC50 (Ebolavirus [2]): Not_active |

— ChEMBL document CHEMBL6182911, “From Diarylsulfides to Diarylamines: New Ebola Virus Entry Inhibitors with Improved Metabolic Stability” (J Med Chem, 2025)
